Source: US10428083B2, “Heterocyclylmethyl-thienouracile as antagonists of the adenosine-A2B-receptor” (BAYER PHARMA AKTIENGESELLSCHAFT, priority 2015, dated 2019)

Biological target: human adenosine A2b receptor (Homo sapiens (Human), UniProt P29275)
Test: Cellular in vitro reporter gene test for A2b receptor activity (CHO-K1, CRE-luciferase, NECA stimulation)
Type: cell-based
Details: recombinant CHO-K1 cell line, CRE-luciferase reporter, antagonism of EC50 concentration of NECA; in some cases means of several determinations, rounded to two significant figures; read-out: A2b receptor IC50
Summary of the method: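 CHO-K1 cells with CRE-driven luciferase; antagonists co-incubated with NECA at its EC50, determined in a pre-experiment on each test day. Luciferase read by luminescence 3 h after NECA addition.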

human adenosine A2b receptor, sequence (P29275 whole entry): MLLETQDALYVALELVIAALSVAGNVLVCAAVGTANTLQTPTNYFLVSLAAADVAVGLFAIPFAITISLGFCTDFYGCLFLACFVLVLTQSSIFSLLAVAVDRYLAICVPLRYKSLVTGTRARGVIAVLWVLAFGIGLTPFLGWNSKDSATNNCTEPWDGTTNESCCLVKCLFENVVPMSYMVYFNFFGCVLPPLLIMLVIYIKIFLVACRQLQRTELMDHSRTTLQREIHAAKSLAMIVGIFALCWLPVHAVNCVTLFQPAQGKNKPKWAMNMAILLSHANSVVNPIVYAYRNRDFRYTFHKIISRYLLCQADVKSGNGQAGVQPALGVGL

**Q.** How did the IC50 turn out when `COCCn1c(=O)c2c(C)c(CN3CCNC3=NC(=O)OC)sc2n(CC2CCCO2)c1=O` (single isomer, unassigned) [Example 391, Methyl [1-f{[3-(2-methoxyethyl)-5-methyl-2,4-dioxo-1-(tetrahydrofuran-2-ylmethyl)-1,2,3,4-tetrahydrothieno[2,3-d]pyrimidin-6-yl]methyl}imidazolidin-2-ylidene]carbamate] was run?
**A.** Its IC50 is 34 nM.

**Q.** How did the IC50 turn out when `COCCn1c(=O)c2c(C)c(CN3CCNC3=NC(=O)OC)sc2n(CC2CCCO2)c1=O` (single isomer, unassigned) [Example 392, Methyl [1-f{[3-(2-methoxyethyl)-5-methyl-2,4-dioxo-1-(tetrahydrofuran-2-ylmethyl)-1,2,3,4-tetrahydrothieno[2,3-d]pyrimidin-6-yl]methyl}imidazolidin-2-ylidene]carbamate] was run?
**A.** Its IC50 is 56 nM.

**Q.** How did the IC50 turn out when `Cc1c(CN2CCNC(=O)C2=O)sc2c1c(=O)n(C(C)C)c(=O)n2CC1CCO1` (single isomer, unassigned) [Example 398, 6-[(2,3-Dioxopiperazin-1-yl)methyl]-3-isopropyl-5-methyl-1-(oxetan-2-ylmethyl)thieno[2,3-d]pyrimidine-2,4(1H,3H)-dione] was run?
**A.** Its IC50 is 240 nM.

**Q.** For `Cc1c(CN2CCNC(=O)C2=O)sc2c1c(=O)n(C(C)C)c(=O)n2CC1CCO1` (single isomer, unassigned) [Example 399, 6-[(2,3-Dioxopiperazin-1-yl)methyl]-3-isopropyl-5-methyl-1-(oxetan-2-ylmethyl)thieno[2,3-d]pyrimidine-2,4(1H,3H)-dione], which IC50 is on record?
**A.** Its IC50 is 26 nM.

**Q.** Which IC50 does the source give for `COCCn1c(=O)c2c(C)c(CN3CCNC(=O)C3=O)sc2n(CC2CCO2)c1=O` (single isomer, unassigned) [Example 401, 6-[(2,3-Dioxopiperazin-1-yl)methyl]-3-(2-methoxyethyl)-5-methyl-1-(oxetan-2-ylmethyl)thieno[2,3-d]pyrimidine-2,4(1H,3H)-dione] here?
**A.** The IC50 was 660 nM.

**Q.** Which IC50 does the source give for `COCCn1c(=O)c2c(C)c(CN3CCNC(=O)C3=O)sc2n(CC2CCO2)c1=O` (single isomer, unassigned) [Example 402, 6-[(2,3-Dioxopiperazin-1-yl)methyl]-3-(2-methoxyethyl)-5-methyl-1-(oxetan-2-ylmethyl)thieno[2,3-d]pyrimidine-2,4(1H,3H)-dione] here?
**A.** Its IC50 is 100 nM.

**Q.** With `Cc1c(CN2CCNC2=O)sc2c1c(=O)n(CC(C)(C)C)c(=O)n2CC1CCCO1` (single isomer, unassigned) [Example 407, 3-(2,2-Dimethylpropyl)-5-methyl-6-[(2-oxoimidazolidin-1-yl)methyl]-1-(tetrahydrofuran-2-ylmethyl)thieno[2,3-d]pyrimidine-2,4(1H,3H)-dione] as the compound, how does the IC50 read?
**A.** Its IC50 is 32 nM.

**Q.** With `Cc1c(CN2CCNC2=O)sc2c1c(=O)n(CC(C)(C)C)c(=O)n2CC1CCCO1` (single isomer, unassigned) [Example 408, 3-(2,2-Dimethylpropyl)-5-methyl-6-[(2-oxoimidazolidin-1-yl)methyl]-1-(tetrahydrofuran-2-ylmethyl)thieno[2,3-d]pyrimidine-2,4(1H,3H)-dione] as the compound, how does the IC50 read?
**A.** Its IC50 is 12 nM.

**Q.** How did the IC50 turn out when `COC(C)Cn1c(=O)c2c(C)c(CN3CCNC3=O)sc2n(CCC(F)(F)F)c1=O` (single isomer, unassigned) [Example 413, 3-(2-Methoxypropyl)-5-methyl-6-[(2-oxoimidazolidin-1-yl)methyl]-1-(3,3,3-trifluoropropyl)thieno[2,3-d]pyrimidine-2,4(1H,3H)-dione] was run?
**A.** The IC50 was 4.6 nM.

**Q.** With `COC(C)Cn1c(=O)c2c(C)c(CN3CCNC3=O)sc2n(CCC(F)(F)F)c1=O` (single isomer, unassigned) [Example 414, 3-(2-Methoxypropyl)-5-methyl-6-[(2-oxoimidazolidin-1-yl)methyl]-1-(3,3,3-trifluoropropyl)thieno[2,3-d]pyrimidine-2,4(1H,3H)-dione] as the compound, how does the IC50 read?
**A.** Its IC50 is 11 nM.

**Q.** `CCn1c(=O)c2c(C)c(Cn3nc[nH]c3=O)sc2n(CC2CCCO2)c1=O` (single isomer, unassigned) [Example 420, 3-Ethyl-5-methyl-6-[(5-oxo-4,5-dihydro-1H-1,2,4-triazol-1-yl)methyl]-1-(tetrahydrofuran-2-ylmethyl)thieno[2,3-d]pyrimidine-2,4(1H,3H)-dione] was tested. Which IC50 did it give?
**A.** The IC50 was 50 nM.

**Q.** How did the IC50 turn out when `CCn1c(=O)c2c(C)c(Cn3nc[nH]c3=O)sc2n(CC2CCCO2)c1=O` (single isomer, unassigned) [Example 421, 3-Ethyl-5-methyl-6-[(5-oxo-4,5-dihydro-1H-1,2,4-triazol-1-yl)methyl]-1-(tetrahydrofuran-2-ylmethyl)thieno[2,3-d]pyrimidine-2,4(1H,3H)-dione] was run?
**A.** Its IC50 is 71 nM.

**Q.** Which IC50 does the source give for `Cc1c(Cn2nc[nH]c2=O)sc2c1c(=O)n(C(C)C)c(=O)n2CC1CCCO1` (single isomer, unassigned) [Example 425, 3-Isopropyl-5-methyl-6-[(5-oxo-4,5-dihydro-1H-1,2,4-triazol-1-yl)methyl]-1-(tetrahydrofuran-2-ylmethyl)thieno[2,3-d]pyrimidine-2,4(1H,3H)-dione] here?
**A.** The IC50 was 42 nM.

**Q.** Which IC50 does the source give for `Cc1c(Cn2nc[nH]c2=O)sc2c1c(=O)n(C(C)C)c(=O)n2CC1CCCO1` (single isomer, unassigned) [Example 426, 3-Isopropyl-5-methyl-6-[(5-oxo-4,5-dihydro-1H-1,2,4-triazol-1-yl)methyl]-1-(tetrahydrofuran-2-ylmethyl)thieno[2,3-d]pyrimidine-2,4(1H,3H)-dione] here?
**A.** Its IC50 is 270 nM.

**Q.** For `Cc1c(Cn2nc[nH]c2=O)sc2c1c(=O)n(CC(C)(C)C)c(=O)n2CC1CCCO1` (single isomer, unassigned) [Example 430, 3-(2,2-Dimethylpropyl)-5-methyl-6-[(5-oxo-4,5-dihydro-1H-1,2,4-triazol-1-yl)methyl]-1-(tetrahydrofuran-2-ylmethyl)thieno[2,3-d]pyrimidine-2,4(1H,3H)-dione], which IC50 is on record?
**A.** The IC50 was 280 nM.

**Q.** For `Cc1c(Cn2nc[nH]c2=O)sc2c1c(=O)n(CC(C)(C)C)c(=O)n2CC1CCCO1` (single isomer, unassigned) [Example 431, 3-(2,2-Dimethylpropyl)-5-methyl-6-[(5-oxo-4,5-dihydro-1H-1,2,4-triazol-1-yl)methyl]-1-(tetrahydrofuran-2-ylmethyl)thieno[2,3-d]pyrimidine-2,4(1H,3H)-dione], which IC50 is on record?
**A.** The IC50 was 740 nM.

**Q.** For `Cc1c(Cn2nc[nH]c2=O)sc2c1c(=O)n(CC(F)(F)F)c(=O)n2CC1CCCO1` (single isomer, unassigned) [Example 435, 5-Methyl-6-[(5-oxo-4,5-dihydro-1H-1,2,4-triazol-1-yl)methyl]-1-(tetrahydrofuran-2-ylmethyl)-3-(2,2,2-trifluoroethyl)thieno[2,3-d]pyrimidine-2,4(1H,3H)-dione], which IC50 is on record?
**A.** Its IC50 is 43 nM.

**Q.** `Cc1c(Cn2nc[nH]c2=O)sc2c1c(=O)n(CC(F)(F)F)c(=O)n2CC1CCCO1` (single isomer, unassigned) [Example 436, 5-Methyl-6-[(5-oxo-4,5-dihydro-1H-1,2,4-triazol-1-yl)methyl]-1-(tetrahydrofuran-2-ylmethyl)-3-(2,2,2-trifluoroethyl)thieno[2,3-d]pyrimidine-2,4(1H,3H)-dione] was tested. Which IC50 did it give?
**A.** The IC50 was 65 nM.

**Q.** For `COC(C)Cn1c(=O)c2c(C)c(Cn3nc[nH]c3=O)sc2n(CCC(F)(F)F)c1=O` (single isomer, unassigned) [Example 441, 3-(2-Methoxypropyl)-5-methyl-6-[(5-oxo-4,5-dihydro-1H-1,2,4-triazol-1-yl)methyl]-1-(3,3,3-trifluoropropyl)thieno[2,3-d]pyrimidine-2,4(1H,3H)-dione], which IC50 is on record?
**A.** Its IC50 is 8.6 nM.

**Q.** `COC(C)Cn1c(=O)c2c(C)c(Cn3nc[nH]c3=O)sc2n(CCC(F)(F)F)c1=O` (single isomer, unassigned) [Example 442, 3-(2-Methoxypropyl)-5-methyl-6-[(5-oxo-4,5-dihydro-1H-1,2,4-triazol-1-yl)methyl]-1-(3,3,3-trifluoropropyl)thieno[2,3-d]pyrimidine-2,4(1H,3H)-dione] was tested. Which IC50 did it give?
**A.** The IC50 was 60 nM.

**Q.** For `Cc1c(CN2CCNC2=NC#N)sc2c1c(=O)n(CC(C)(C)C)c(=O)n2CC1CCCO1` (single isomer, unassigned) [Example 447, [1-{[3-(2,2-Dimethylpropyl)-5-methyl-2,4-dioxo-1-(tetrahydrofuran-2-ylmethyl)-1,2,3,4-tetrahydrothieno[2,3-d]pyrimidin-6-yl]methyl}imidazolidin-2-ylidene]cyanamide], which IC50 is on record?
**A.** The IC50 was 9.7 nM.

**Q.** `Cc1c(CN2CCNC2=NC#N)sc2c1c(=O)n(CC(C)(C)C)c(=O)n2CC1CCCO1` (single isomer, unassigned) [Example 448, [1-{[3-(2,2-Dimethylpropyl)-5-methyl-2,4-dioxo-1-(tetrahydrofuran-2-ylmethyl)-1,2,3,4-tetrahydrothieno[2,3-d]pyrimidin-6-yl]methyl}imidazolidin-2-ylidene]cyanamide] was tested. Which IC50 did it give?
**A.** Its IC50 is 17 nM.

**Q.** `Cc1c(CN2CCNC2=NC#N)sc2c1c(=O)n(CC(F)(F)F)c(=O)n2CC1CCO1` (single isomer, unassigned) [Example 449, [1-{[5-Methyl-1-(oxetan-2-ylmethyl)-2,4-dioxo-3-(2,2,2-trifluoroethyl)-1,2,3,4-tetrahydrothieno[2,3-d]pyrimidin-6-yl]methyl}imidazolidin-2-ylidene]cyanamide] was tested. Which IC50 did it give?
**A.** Its IC50 is 54 nM.

**Q.** `Cc1c(CN2CCNC2=NC#N)sc2c1c(=O)n(CC(F)(F)F)c(=O)n2CC1CCO1` (single isomer, unassigned) [Example 450, [1-{[5-Methyl-1-(oxetan-2-ylmethyl)-2,4-dioxo-3-(2,2,2-trifluoroethyl)-1,2,3,4-tetrahydrothieno[2,3-d]pyrimidin-6-yl]methyl}imidazolidin-2-ylidene]cyanamide] was tested. Which IC50 did it give?
**A.** Its IC50 is 14 nM.

**Q.** For `COC(C)Cn1c(=O)c2c(C)c(CN3CCNC3=NC#N)sc2n(CCC(F)(F)F)c1=O` (single isomer, unassigned) [Example 455, [1-{[3-(2-Methoxypropyl)-5-methyl-2,4-dioxo-1-(3,3,3-trifluoropropyl)-1,2,3,4-tetrahydrothieno[2,3-d]pyrimidin-6-yl]methyl}imidazolidin-2-ylidene]cyanamide], which IC50 is on record?
**A.** The IC50 was 3.6 nM.
